Laboratory results published in patent US10960084B2, “Modulation of fluid intake” (California Institute of Technology, priority 2018, dated 2021).
“Also recorded” adds a separate entry of the source.

Key:
[1] = system: hM4Di-expressing MnPO^nNOS neurons; assay: Slice current-clamp recording, CNO on hM4Di-expressing MnPO^nNOS neurons; format: cell-based, mice; details: brain slices
Text: Procedures for preparation of acute brain slices and recordings with optogenetic stimulations were similar to those described previously^[10],[36]. After decapitation, the brain was removed and immersed in ice-cold solution. Coronal slices ([…]) were cut using a vibratome (VT-1200s, Leica) and moved into HEPES-holding solution (NaCl 92, KCl 2.5, NaH2PO4 1.2, NaHCO3 30, HEPES 20, glucose 25, Na-ascorbate 5, Thiourea 2, Na14 pyruvate 3, MgSO4 2, CaCl2 2, pH 7.35). The slices were allowed to recover at 33° C. for 30 min and then held at room temperature ([…]) until use.
While recording, slices were perfused continuously (˜2 mL/min) with artificial cerebrospinal fluid (ACSF-NaCl 124, KCl2.5, NaH2PO4 1.2, NaHCO3 24, glucose 25, MgSO4 1, CaCl2 2) at 25° C. Neurons were visualized and targeted using an upright IR19 DIC microscope (BX51WI, Olympus). […] In order to confirm the PSCs recorded were GABAergic, picrotoxin (150 μM) was applied through the bath in part of the experiments. […] CNO (˜6 μM) was applied by a puff (30 s) from another glass pipette placed ˜50 μm from the recorded cell.

SFO^nNOS neurons = assay: Salt/Mannitol loading with fiber photometry of SFO^nNOS/MnPO^nNOS neurons and drinking; format: in vivo, mice
Description: Salt/Mannitol Loading Experiments: 150 μL/300 μL of 2 M NaCl or 300 μL of 2 M Mannitol was injected intraperitoneally at the end of the acclimatization period. For FIGS. 1P-T and FIGS. 7P-S, CNO or vehicle (water) was injected 10 min prior to NaCl/Mannitol injection. We measured bulk fluorescence signals using fiber photometry as previously described^[26]. Briefly, 490 nm and 405 nm LEDs ([…] and […]) were collimated and delivered to the brain. The light intensity was kept less than 100 μW during all recordings. The fluorescence signal was then focused onto a femtowatt photoreceiver (Newport, Model 2151). The modulation and demodulation were done with an RP2.1 real time processor (Tucker-Davis Technologies) running custom software. The licks from the lickometer were simultaneously recorded as real-time TTL signals to the RP2.1. Fluorescence changes were analyzed using custom MATLAB (MathWorks) code as described previously^[26]. Data were extracted and subjected to a low pass filter at 1.8 Hz. A linear function was used to scale up the 405 nm channel signal to the 490 nm channel signal to get the fitted 405 nm signal. The resultant ΔF/F was calculated as (raw 490 nm signal-fitted 405 nm signal)/(fitted 405 nm signal). For brief access tests, the Area Under Curve (ΣΔFduring) was quantified by integrating the fluorescence signals during the bout. For all bouts, the mean fluorescence for 30 s prior to the first lick was calculated and subtracted from the entire session. ΔF changes (ΔFpost-ΔFpre) were calculated by subtracting the mean fluorescence signal during the 2-s period before the first lick from the mean signal during the 2-s at 1 min after the bout. For displaying traces, the fluorescence data was time-binned by a factor of 2.5 times the sampling frequency and down-sampled to 1 Hz. For long-term tests, the Area Under Curve was calculated for 2.5 min after the start of the bout. […] For […]), the first bout at the start of the session and the last bout within 10 min of access were used. The AUC for the PSTHs were calculated during the first or the last 15 seconds.

[2] = GCaMP6s fiber photometry, MnPO^nNOS inhibited by CNO

C[N+]1([O-])CCN(C2=Nc3cc(Cl)ccc3Nc3ccccc32)CC1 [CNO, clozapine-N-oxide]
neurons in which firing is inhibited ([1]; CNO application): 6/6 | firing of hM4Di-expressing MnPO^nNOS neurons ([1]; brief application of CNO): strongly suppressed the firing | calcium increases / activity of SFO^nNOS neurons by mannitol-induced osmotic stress (SFO^nNOS neurons; [2]): unaffected; also recorded: without changing the activity | calcium increases in SFO^nNOS neurons by NaCl-induced osmotic stress (SFO^nNOS neurons; [2]): unaffected | drinking behavior after Mannitol injection (SFO^nNOS neurons; hM4Di in MnPO^nNOS, CNO 10 min prior to intraperitoneal Mannitol): intensely suppressed drinking responses; also recorded: drastically suppressed drinking behavior | drinking behavior after NaCl injection (SFO^nNOS neurons; hM4Di in MnPO^nNOS, CNO 10 min prior to intraperitoneal NaCl): intensely suppressed drinking responses; also recorded: drastically suppressed drinking behavior
